Assay results taken from publication PMC11721924, “Discovery of LAH-1 as potent c-Met inhibitor for the treatment of non-small cell lung cancer” (Journal of Enzyme Inhibition and Medicinal Chemistry, 2023).
Like-named read-outs stand apart in the source and are kept apart here.

What was measured:
[1] = test system: panel of 18 diversified kinases; assay: Kinase profile against a panel of 18 kinases; details: 300 nM; including highly homologous kinases RON and Axl
In vivo pharmacokinetics = assay: In vivo pharmacokinetics; set-up: species or system SD rats
Description: (§1) Having characterised LAH-1 as a potent c-Met inhibitor, the ADME properties and PK parameters were further determined. […] Additionally, Egg-PAMPA (Parallel artificial membrane permeability assay) confirmed LAH-1 as membrane permeable, with permeability rates (Pe) of 3.4 nm/s. […] Next, LAH-1 was further progressed into in vivo PK studies.
PK parameters of LAH-1 was determined in SD rats (male, n = 3 per group) weighing (200–240 g), which were obtained from SpePharm (Beijing) Biotechnology Co., Ltd. Briefly, rats were fasted overnight before dosing, LAH-1 was given as a solution in 10% DMSO with 90% Saline for intravenously (5 mg/kg) and 0.1% PEG400 in 0.5% CMC-Na in water for PO (20 mg/kg). Each rat received 2 or 10 ml of the dosing solution/kg of body weight by intravenous injection and by gavage, respectively. Blood sample was collected at 0.033 (iv only), 0.083, 0.25, 0.5,1, 2, 4, 6, 8, 12 and 24 h after dosing and stored in ice (0–4 °C). Plasma was separated by centrifugation within 15 min post sampling. Levels of LAH-1 in blood were determined by 6500+ Triple Quad LC-MS/MS System (AB SCIEX LLC, CA, USA). The PK parameters were calculated with WinNonlin software using noncompartmental analysis.

EBC-1 cells [2] = assay: Colony formation; type: cell-based, human; details: EBC-1, 14 days treatment, especially at 20 μM
Description: (§2) To investigate the effect of LAH-1 on colony formation ability, the EBC-1 cells which harbouring Met amplification were treated with different concentrations of LAH-1. […] Considering the important role of HGF/c-Met signalling in promoting cancer cell migration and invasion, the NCI-H441 cells with elevated expression level of c-Met was used. After treatment with HGF in the presence of LAH-1, the migratory and invasive abilities of NCI-H441 cells were determined.
EBC-1 cells were trypsinized and approximately 2000 cells were plated on 6-well plates. 14 days later, visible colonies were fixed and stained with 0.1% crystal violet. The number of colonies was quantified by Image J software (Developed by National Institutes of Health). A group of >50 cells was defined as one colony. All experiments were performed in duplicate wells.

CYP1A2 = molecular target: T1, CYP1A2 (Homo sapiens, UniProt P05177); assay: CYP450 inhibition assay; type: in vitro ADME
T1 sequence (P05177 1-516): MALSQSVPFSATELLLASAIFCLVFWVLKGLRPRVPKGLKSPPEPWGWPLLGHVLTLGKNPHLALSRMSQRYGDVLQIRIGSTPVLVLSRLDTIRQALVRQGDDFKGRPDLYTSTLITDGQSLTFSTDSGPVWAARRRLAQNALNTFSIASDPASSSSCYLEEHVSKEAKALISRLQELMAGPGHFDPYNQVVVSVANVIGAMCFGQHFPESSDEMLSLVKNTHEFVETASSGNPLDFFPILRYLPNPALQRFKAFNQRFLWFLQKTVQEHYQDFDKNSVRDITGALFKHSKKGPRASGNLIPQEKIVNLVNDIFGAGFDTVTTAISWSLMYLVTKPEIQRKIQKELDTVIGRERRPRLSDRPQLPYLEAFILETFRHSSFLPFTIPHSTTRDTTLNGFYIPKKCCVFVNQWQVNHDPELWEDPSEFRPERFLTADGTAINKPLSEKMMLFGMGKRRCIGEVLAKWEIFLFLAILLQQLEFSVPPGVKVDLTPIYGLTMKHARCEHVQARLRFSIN
Description: as §1
(§3) The liver microsomal stability assay, PAMPA, and CYP 450 Inhibition Assay were conducted according to the previous reported procedure.

CYP2D6 = CYP2D6 (Homo sapiens, UniProt P10635); assay: CYP450 inhibition assay; type: in vitro ADME
Description: as §1, §3

CYP3A4 = CYP3A4 (Homo sapiens, UniProt P08684); assay: CYP450 inhibition assay; type: in vitro ADME
Description: as §1, §3

CYP2C19 = CYP2C19 (Homo sapiens, UniProt P33261); assay: CYP450 inhibition assay; type: in vitro ADME
Description: as §1, §3

CYP2C9 = CYP2C9 (Homo sapiens, UniProt P11712); assay: CYP450 inhibition assay; type: in vitro ADME
Description: as §1, §3

[3] = Liver microsomal stability assay; type: in vitro ADME, human; details: HLM
Description: as §1, §3

NCI-H441 cells [4] = assay: HGF-induced cell migration (transwell); type: cell-based; details: HGF 100 ng/mL, 28 h
Description: as §2
(§4) NCI-H441 cells in log growth phase were suspended in serum-free medium at a density of 150,000 cells per well and then seeded in 24-well transwell plates ([8] μm; Corning). Designated control or LAH-1 treated cells were added to each migration or invasion chamber and incubated for 28 h. Additionally, HGF (100 ng/mL) was added to the lower well of each companion plate to attract cells from migration or invasion chamber plate inserts at the top of the companion plate. The invaded or migrated cells to the lower wells were then fixed and stained with crystal violet. Images were taken by Olympus BX51 microscope.

HT-1080 cells = assay: Cell proliferation assay (CCK-8); type: cell-based, human
Description: (§5) Considering increased c-Met activity has been implicated in multiple tumour cells, we evaluated the half maximal inhibitory concentration (IC50) of LAH-1 in several cancer cell lines which harbour different levels of Met genetic alteration, these include human lung squamous cell carcinoma EBC-1, human gastric cancer line Hs746T, human oesophageal adenocarcinoma cell line OE33, human small-cell lung cancer SBC-5, and human glioblastoma cell U87MG.
(§6) EBC-1, Hs746T, OE33, SBC-5, U87MG, HT-1080 cell lines were purchased from ATCC, RIKEN, ECACC or JCRB. The antiproliferative activities of LAH-1 against these cells were assessed by CCK-8 assay according to the manufacturer’s protocol. Briefly, cells were seeded in 96-well plate at different density. 3-fold serial diluted compound or DMSO control was added to each well. After 72 h incubation, CCK-8 was added and incubated for another 2 h. The optical density of each well was read by microplate reader (Biotech, Shanghai, China). IC50 values were calculated by GraphPad Prism.

c-Met = c-Met (Homo sapiens, UniProt P08581); assay: In vitro enzymatic assay (mobility shift assay, ATP at Km)
Description: The compound and enzyme solution were added to the assay plate and incubate at room temperature for 10 min. Then the peptide solution was added, incubate at 28 °C for specified period of time, and subsequently added the stop buffer. Data was collected on Calliper, and IC50 values were calculated from the inhibition curves.

[5] = Liver microsomal stability assay; type: in vitro ADME, SD rat; details: RLM
Description: as §1, §3

[6] = Egg-PAMPA permeability assay; type: in vitro ADME; details: incubation 4 h
Description: as §1, §3

NCI-H441 cells [7] = assay: HGF-induced cell invasion (transwell); type: cell-based; details: HGF 100 ng/mL, 28 h
Description: as §2, §4

WI-38 cells = assay: Antiproliferative inhibition, normal fibroblasts; type: cell-based; details: Homo sapiens
KDR = KDR (Homo sapiens, UniProt P35968); assay: Kinase profile, KDR; details: 300 nM
EBC-1 cells [8] = assay: Annexin V-FITC/PI dual staining apoptosis assay; type: cell-based, human; details: EBC-1, 24 h; untreated group 1.42%
Description: To determine whether the observed cell death was due to physiological apoptosis, Annexin V FITC/PI dual staining assay was conducted. EBC-1cells were treated with LAH-1 at different concentrations for 24 h to examine the effect on apoptosis.
The effect of LAH-1 on EBC-1 cells apoptosis was determined by Annexin V-FITC/PI apoptosis detection kit (BD Bioscience, Cat. No. 556547). Briefly, 300,000 EBC-1 cells were seeded in 6-well plate. After treatment with or without LAH-1 for 24 h, cells were collected, stained by FITC in binding buffer preventing from light, and then labelled by PI (absin, Cat. No. abs50005-50T). The apoptotic cells were analysed by flow cytometer Cytoflex S (Beckman Coulter).

Hs746T cells = assay: Cell proliferation assay (CCK-8); type: cell-based; details: Homo sapiens, 72 h
Description: as §5, §6

EBC-1 cells [9] = assay: Cell proliferation assay (CCK-8); type: cell-based; details: Homo sapiens, 72 h
Description: as §5, §6

SBC-5 cells = assay: Cell proliferation assay (CCK-8); type: cell-based; details: Homo sapiens, 72 h
Description: as §5, §6

U87MG cells = assay: Cell proliferation assay (CCK-8); type: cell-based; details: Homo sapiens, U-87 MG, 72 h
Description: as §5, §6

OE33 cells = assay: Cell proliferation assay (CCK-8); type: cell-based; details: Homo sapiens, 72 h
Description: as §5, §6

[10] = test system: phosphorylation of c-Met, Akt, and Erk 1/2 in EBC-1 cells; assay: Western blot of c-Met signalling; type: cell-based, human; details: 2 h treatment
Description: Based on the sensitivity of LAH-1 against six cancer cell lines, we then conducted western blot assays to confirm the effect of LAH-1 on c-Met inhibition in cancer cells, and human non-small lung cancer (NSCLC) cell EBC-1 which harbours amplified Met gene was used.
Briefly, EBC-1 cells were seeded at a density of 1.5 × 10^6 cells/well and treated with Compound LAH-1 at the indicated concentration for 2 h. DMSO-treated cells were used as control groups. The whole cellular protein was extracted and measured by BCA protein assay. Total proteins were fractionated on SDS-PAGE and then transferred onto PVDF membranes (Millipore). Membranes were blocked with 5% BSA at room temperature and then incubated overnight at 4 °C with specific primary antibodies (Phospho-Met (CST, #3077S), Met (D1C2) (CST, #8198S), Phospho-Akt (CST, #4060S), Akt (pan) (C67E7) (CST, #4691S), Phospho-p44/42 MAPK (Erk1/2) (CST, #4370S), p44/42 MAPK (Erk1/2) (137F5) (CST, #4695S)) followed by the secondary antibody. Finally, the detection was performed by the Fully Automated Chemiluminescence/Fluorescence Image Analysis Systems (Tanon 5200).

[11] = Sprague-Dawley, rat, plasma, iv, 5 mg/kg, male SD rats
[12] = Sprague-Dawley, rat, plasma, po, 20 mg/kg, male SD rats

Chain of CYP3A4 (P08684 whole entry): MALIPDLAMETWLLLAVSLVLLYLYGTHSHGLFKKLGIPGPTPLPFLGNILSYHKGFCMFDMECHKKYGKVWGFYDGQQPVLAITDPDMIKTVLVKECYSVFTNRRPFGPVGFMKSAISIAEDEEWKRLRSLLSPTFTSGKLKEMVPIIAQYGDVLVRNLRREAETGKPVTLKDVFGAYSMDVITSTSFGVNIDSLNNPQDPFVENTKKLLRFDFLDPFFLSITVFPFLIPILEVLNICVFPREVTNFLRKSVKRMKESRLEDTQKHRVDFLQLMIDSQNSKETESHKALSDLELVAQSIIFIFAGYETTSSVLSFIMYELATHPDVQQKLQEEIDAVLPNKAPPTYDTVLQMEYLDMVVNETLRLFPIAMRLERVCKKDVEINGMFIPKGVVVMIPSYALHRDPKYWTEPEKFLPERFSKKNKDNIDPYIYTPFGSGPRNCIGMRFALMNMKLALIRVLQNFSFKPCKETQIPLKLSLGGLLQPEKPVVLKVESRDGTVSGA
Chain of KDR (P35968 20-1356, species assumed): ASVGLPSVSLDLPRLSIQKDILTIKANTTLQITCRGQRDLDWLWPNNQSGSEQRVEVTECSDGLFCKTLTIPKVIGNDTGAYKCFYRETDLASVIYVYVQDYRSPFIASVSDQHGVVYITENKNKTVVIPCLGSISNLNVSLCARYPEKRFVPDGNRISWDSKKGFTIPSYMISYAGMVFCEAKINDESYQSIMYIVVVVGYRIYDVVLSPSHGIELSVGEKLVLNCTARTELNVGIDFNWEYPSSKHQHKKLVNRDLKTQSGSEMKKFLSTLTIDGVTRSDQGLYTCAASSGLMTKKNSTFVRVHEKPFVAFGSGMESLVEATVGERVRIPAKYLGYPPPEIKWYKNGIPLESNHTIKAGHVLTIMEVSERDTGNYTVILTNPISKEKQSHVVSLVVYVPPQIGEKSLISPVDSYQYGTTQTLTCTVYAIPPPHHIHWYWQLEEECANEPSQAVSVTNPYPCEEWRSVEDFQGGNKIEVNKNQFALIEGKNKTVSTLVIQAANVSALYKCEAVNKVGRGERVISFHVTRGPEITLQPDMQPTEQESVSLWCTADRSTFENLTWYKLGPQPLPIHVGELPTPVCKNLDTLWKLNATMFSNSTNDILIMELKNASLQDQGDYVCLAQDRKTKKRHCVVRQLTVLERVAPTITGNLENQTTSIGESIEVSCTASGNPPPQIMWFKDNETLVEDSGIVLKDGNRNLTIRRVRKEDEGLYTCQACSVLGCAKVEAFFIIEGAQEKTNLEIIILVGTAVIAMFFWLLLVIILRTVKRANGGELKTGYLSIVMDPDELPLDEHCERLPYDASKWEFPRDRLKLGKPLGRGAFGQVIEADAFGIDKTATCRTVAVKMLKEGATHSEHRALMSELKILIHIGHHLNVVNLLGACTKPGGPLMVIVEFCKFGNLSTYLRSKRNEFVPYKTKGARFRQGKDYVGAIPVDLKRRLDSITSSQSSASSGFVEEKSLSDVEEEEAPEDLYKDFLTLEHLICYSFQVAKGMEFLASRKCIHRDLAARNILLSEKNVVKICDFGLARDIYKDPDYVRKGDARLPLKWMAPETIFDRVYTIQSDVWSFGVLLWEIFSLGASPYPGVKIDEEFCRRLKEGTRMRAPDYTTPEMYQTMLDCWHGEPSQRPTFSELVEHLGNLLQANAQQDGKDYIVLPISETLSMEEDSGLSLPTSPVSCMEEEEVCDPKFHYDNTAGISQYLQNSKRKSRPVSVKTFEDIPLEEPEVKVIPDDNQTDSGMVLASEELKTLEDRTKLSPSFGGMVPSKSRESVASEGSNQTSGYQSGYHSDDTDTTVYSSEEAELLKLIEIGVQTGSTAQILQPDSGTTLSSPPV
Chain of CYP2C19 (P33261 whole entry): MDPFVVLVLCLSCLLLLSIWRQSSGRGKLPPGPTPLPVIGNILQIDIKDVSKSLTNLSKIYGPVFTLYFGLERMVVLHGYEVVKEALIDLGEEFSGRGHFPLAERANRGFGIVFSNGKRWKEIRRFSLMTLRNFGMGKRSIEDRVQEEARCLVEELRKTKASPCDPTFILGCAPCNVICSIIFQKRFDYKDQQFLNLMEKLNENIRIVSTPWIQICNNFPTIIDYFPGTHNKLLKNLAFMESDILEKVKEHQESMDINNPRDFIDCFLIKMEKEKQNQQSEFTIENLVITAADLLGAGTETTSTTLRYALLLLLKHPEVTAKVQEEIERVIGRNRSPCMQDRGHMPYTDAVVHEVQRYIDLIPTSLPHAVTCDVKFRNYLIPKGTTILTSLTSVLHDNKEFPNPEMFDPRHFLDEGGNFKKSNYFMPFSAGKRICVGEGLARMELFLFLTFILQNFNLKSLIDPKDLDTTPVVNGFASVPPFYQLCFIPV
Chain of c-Met (P08581 956-1390 limits assumed): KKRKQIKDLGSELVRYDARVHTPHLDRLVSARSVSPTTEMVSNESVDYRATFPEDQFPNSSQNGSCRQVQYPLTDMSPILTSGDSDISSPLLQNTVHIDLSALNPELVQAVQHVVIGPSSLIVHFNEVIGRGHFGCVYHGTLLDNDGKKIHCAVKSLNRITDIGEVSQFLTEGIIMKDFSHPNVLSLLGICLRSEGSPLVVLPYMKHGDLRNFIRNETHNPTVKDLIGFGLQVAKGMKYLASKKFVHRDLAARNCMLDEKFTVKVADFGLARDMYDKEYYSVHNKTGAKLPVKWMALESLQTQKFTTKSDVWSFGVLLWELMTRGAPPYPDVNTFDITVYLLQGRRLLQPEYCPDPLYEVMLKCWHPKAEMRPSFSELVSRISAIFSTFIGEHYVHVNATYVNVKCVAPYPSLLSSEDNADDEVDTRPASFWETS
Chain of CYP2D6 (P10635 whole entry): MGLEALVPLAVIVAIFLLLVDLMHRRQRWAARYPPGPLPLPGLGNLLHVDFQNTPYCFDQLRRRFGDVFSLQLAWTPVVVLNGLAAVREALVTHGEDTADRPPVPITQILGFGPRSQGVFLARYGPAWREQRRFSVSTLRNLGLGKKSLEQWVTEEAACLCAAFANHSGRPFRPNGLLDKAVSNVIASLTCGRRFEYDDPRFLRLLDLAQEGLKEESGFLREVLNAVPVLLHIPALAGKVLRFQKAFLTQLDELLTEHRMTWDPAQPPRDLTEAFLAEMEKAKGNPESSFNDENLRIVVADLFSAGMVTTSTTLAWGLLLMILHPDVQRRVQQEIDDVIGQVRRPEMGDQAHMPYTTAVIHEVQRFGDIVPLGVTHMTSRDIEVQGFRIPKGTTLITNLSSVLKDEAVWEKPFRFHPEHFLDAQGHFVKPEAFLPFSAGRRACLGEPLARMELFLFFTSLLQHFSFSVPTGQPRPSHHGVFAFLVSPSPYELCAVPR
Chain of CYP2C9 (P11712 whole entry): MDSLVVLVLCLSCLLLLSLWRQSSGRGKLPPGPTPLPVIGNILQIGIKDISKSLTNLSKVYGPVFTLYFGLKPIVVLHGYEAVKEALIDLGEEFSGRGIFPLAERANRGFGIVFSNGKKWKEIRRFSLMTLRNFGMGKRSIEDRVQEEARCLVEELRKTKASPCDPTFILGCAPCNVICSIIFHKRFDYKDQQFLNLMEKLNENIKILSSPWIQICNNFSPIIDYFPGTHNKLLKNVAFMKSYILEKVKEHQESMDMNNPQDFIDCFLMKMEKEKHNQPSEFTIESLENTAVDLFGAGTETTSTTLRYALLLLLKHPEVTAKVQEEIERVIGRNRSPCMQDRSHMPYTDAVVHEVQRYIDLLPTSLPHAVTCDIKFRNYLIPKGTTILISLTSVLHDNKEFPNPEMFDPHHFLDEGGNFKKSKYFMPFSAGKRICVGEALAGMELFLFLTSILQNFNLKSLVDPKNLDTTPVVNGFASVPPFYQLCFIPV

Cc1cc(=O)n(-c2ccc(F)cc2)nc1C(=O)Nc1ccc(Oc2ccnc(NC(=O)N3CC(O)C3)c2)c(F)c1 [LAH-1, N-(3-fluoro-4-((2-(3-hydroxyazetidine-1-carboxamido)pyridin-4-yl)oxy)phenyl)-1-(4-fluorophenyl)-4-methyl-6-oxo-1,6-dihydropyridazine-3-carboxamide]
selectivity over the other 16 kinases [1]: great selectivity | AUC(0-inf) (In vivo pharmacokinetics; [11]): 16800 ng·h/mL | Cmax (In vivo pharmacokinetics; [11]): 14900 ng/mL | clearance (In vivo pharmacokinetics; [11]): 19.2 mL/min/kg | half-life (In vivo pharmacokinetics; [11]): 1.6 h | bioavailability (In vivo pharmacokinetics; Sprague-Dawley, rat, plasma, po 20 mg/kg vs iv 5 mg/kg, male SD rats, read-out: F% (oral bioavailability)): 12.2% | AUC(0-inf) (In vivo pharmacokinetics; [12]): 8210 ng·h/mL | Cmax (In vivo pharmacokinetics; [12]): 4460 ng/mL | Tmax (In vivo pharmacokinetics; [12]): 0.33 h | half-life (In vivo pharmacokinetics; [12]): 2.2 h | plasma clearance (in words) (In vivo pharmacokinetics; iv, 5 mg/kg, SD rats): moderate plasma clearance | colony formation (EBC-1 cells [2]): significantly inhibited | inhibition at 10 µM (CYP1A2): 12.8% | inhibition at 10 µM (CYP2D6): 21.5% | inhibition at 10 µM (CYP3A4): 32.2% | inhibition at 10 µM (CYP2C19): 15.6% | inhibition at 10 µM (CYP2C9): 50.7% | Remaining (T = 60min) [3]: 88.7% | half-life ([3]; human, liver microsomes): > 2.08 h | microsomal CLint ([3]; human, liver microsomes, read-out: CL int): < 8.6 µL/min/mg | migration of HGF-induced NCI-H441 cells (NCI-H441 cells [4]): dose dependent suppressed | IC50 (HT-1080 cells; Homo sapiens, HT-1080, 72 h, CCK-8, c-Met non-addicted cell line): > 100 µM | effect on HT-1080 (in words) (HT-1080 cells; cell line with low expression or activation of c-Met): minimal effect | IC50 (c-Met): 0.049 µM | Remaining (T = 60min) [5]: 81.2% | half-life ([5]; Sprague-Dawley, rat, liver microsomes): > 2.08 h | microsomal CLint ([5]; Sprague-Dawley, rat, liver microsomes, read-out: CL int): < 8.6 µL/min/mg | Permeability ([6]; 10 μM): Moderate | Papp at 4 h, 10 μM ([6]; read-out: Mean Pe): 0.34 ×10⁻⁶ cm/s | invasion of HGF-induced NCI-H441 cells (NCI-H441 cells [7]): dose dependent suppressed | inhibition at 100 µM (WI-38 cells): 34.5% | inhibition on KDR (KDR): showed inhibition | early apoptosis (EBC-1 cells [8]): 16.8% | IC50 (Hs746T cells): 2.35 µM | IC50 (EBC-1 cells [9]): 1.15 µM | IC50 (SBC-5 cells): 16.1 µM | IC50 (U87MG cells): 15.7 µM | IC50 (OE33 cells): 4.28 µM | phosphorylation level of c-Met, Akt, and Erk 1/2 [10]: dose-dependent decrease
